In this test the target is T1, TLK1 (Homo sapiens, UniProt Q9UKI8).
T1 construct: purchased Thermo Fisher Scientific (Life Technologies) SelectScreen
Briefly: SelectScreen LanthaScreen. It is filed as binding. To be noted: read-out: % displacement. The essentials:
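SelectScreen broad panel; activity (Z'LYTE, Adapta) plus binding formats. ATP: Km app for CSF1R Z'LYTE; 10 for CAMK1 Adapta. Readout = % per kinase.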
Background: In TR-FRET formats the signal depends on donor and acceptor labels being close together.

Molecules are shown by their SMILES.

T1 sequence (Q9UKI8 whole entry): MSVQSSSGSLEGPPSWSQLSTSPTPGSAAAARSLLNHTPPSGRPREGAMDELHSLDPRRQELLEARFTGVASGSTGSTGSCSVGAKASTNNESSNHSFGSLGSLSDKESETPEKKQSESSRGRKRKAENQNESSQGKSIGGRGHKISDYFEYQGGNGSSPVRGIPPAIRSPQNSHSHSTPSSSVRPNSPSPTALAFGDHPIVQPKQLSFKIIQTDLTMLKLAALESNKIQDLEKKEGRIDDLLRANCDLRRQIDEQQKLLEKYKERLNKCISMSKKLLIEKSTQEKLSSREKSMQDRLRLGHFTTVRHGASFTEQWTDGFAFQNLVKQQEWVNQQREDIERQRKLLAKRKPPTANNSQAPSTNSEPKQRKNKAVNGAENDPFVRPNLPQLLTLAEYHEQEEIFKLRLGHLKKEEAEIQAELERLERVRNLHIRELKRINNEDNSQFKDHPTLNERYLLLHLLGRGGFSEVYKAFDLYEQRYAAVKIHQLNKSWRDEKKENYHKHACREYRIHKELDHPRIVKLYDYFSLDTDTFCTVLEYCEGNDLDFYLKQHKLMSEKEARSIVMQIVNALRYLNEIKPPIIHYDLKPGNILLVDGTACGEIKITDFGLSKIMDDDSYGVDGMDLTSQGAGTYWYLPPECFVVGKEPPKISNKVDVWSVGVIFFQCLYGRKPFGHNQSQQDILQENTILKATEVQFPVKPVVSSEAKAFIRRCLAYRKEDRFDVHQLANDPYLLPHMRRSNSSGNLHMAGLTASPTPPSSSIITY

As to `CN(C(=O)CN1CCOCC1)c1ccc2sc3c(-c4cccc5c(=O)cc(N6CC7CCC(C6)O7)oc45)cccc3c2c1` [NU5455], the inhibition at 1 µM is -0.8%.

These data come from paper PMC6934184, “Selective DNA-PKcs inhibition extends the therapeutic index of localized radiotherapy and chemotherapy” (The Journal of Clinical Investigation, 2019).
